Test results: PubChem BioAssay AID330 (DTP/NCI, 2004)
Where “and” joins values, the source holds several entries; their conditions need not be identical. Equal entries are not always repeated. Toxic doses and inconclusive results are not listed. How the source made its calls: active means survival T/C of 150% or more; inactive means T/C below 125% in these data.

Test system: P388 leukemia ip, CD2F1 mice, survival T/C
Test: NCI In Vivo Anticancer Drug Screen. Data for tumor model P388 Leukemia (intraperitoneal) in CD2F1 (CDF1) mice
Settings: endpoint: median survival time, higher = longer survival
Summary of the method: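 Mice carrying the transplanted tumor received test compound or vehicle. Survival was recorded in each group, and the value is the treated-group measurement divided by that of the vehicle-treated control group.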

[1] = dose: 25.0 mg/kg/injection, schedule: Q01DX009 (ip), vehicle: saline sonified
[2] = dose: 50.0 mg/kg/injection, schedule: Q01DX009 (ip), vehicle: saline sonified
[3] = dose: 50.0 mg/kg/injection, schedule: Q01DX005 (ip), vehicle: Klucel (hydroxypropylcellulose) (HPC)
[4] = dose: 100.0 mg/kg/injection, schedule: Q01DX005 (ip), vehicle: Klucel (hydroxypropylcellulose) (HPC)
[5] = dose: 25.0 mg/kg/injection, schedule: Q01DX005 (ip), vehicle: Klucel (hydroxypropylcellulose) (HPC)
[6] = dose: 60.0 mg/kg/injection, schedule: Q01DX005 (ip), vehicle: saline with Tween-80
[7] = dose: 120.0 mg/kg/injection, schedule: Q01DX005 (ip), vehicle: saline with Tween-80
[8] = dose: 12.5 mg/kg/injection, schedule: Q01DX005 (ip), vehicle: saline with Tween-80
[9] = dose: 25.0 mg/kg/injection, schedule: Q01DX005 (ip), vehicle: saline with Tween-80
[10] = dose: 50.0 mg/kg/injection, schedule: Q01DX005 (ip), vehicle: saline with Tween-80
[11] = dose: 100.0 mg/kg/injection, schedule: Q01DX009 (ip), vehicle: saline
[12] = dose: 240.0 mg/kg/injection, schedule: Q01DX005 (ip), vehicle: saline with Tween-80

Measured: T/C

O=C1CC[C@@H]2CCCC[C@@H]2C1
inactive: dose: 12.5 mg/kg/injection, schedule: Q01DX009 (ip), vehicle: saline sonified 104 % of control | [1] 118 % of control | [2] 100 % of control

O=C(NN=C1CCCCC1)C(=O)Nc1cccc(C(F)(F)F)c1
inactive: [3] 97 % of control | [4] 92 % of control | dose: 200.0 mg/kg/injection, schedule: Q01DX005 (ip), vehicle: Klucel (hydroxypropylcellulose) (HPC) 88 % of control

COCc1cccnc1
inactive: [5] 97 % of control | [3] 93 % of control | [4] 88 % of control

COc1cc2c(cc1O)CCN[C@H]2C
inactive: dose: 50.0 mg/kg/injection, schedule: Q01DX005 (ip), vehicle: saline 100 % of control | dose: 100.0 mg/kg/injection, schedule: Q01DX005 (ip), vehicle: saline 100 % of control | dose: 200.0 mg/kg/injection, schedule: Q01DX005 (ip), vehicle: saline 108 % of control

C=CCC(C(=O)OC)c1ccc(Cl)cc1 (stereo unspecified)
inactive: dose: 0.62 mg/kg/injection, schedule: Q01DX009 (ip), vehicle: saline 114 % of control | dose: 1.25 mg/kg/injection, schedule: Q01DX009 (ip), vehicle: saline 98 % of control | dose: 2.5 mg/kg/injection, schedule: Q01DX009 (ip), vehicle: saline 103 % of control

Cc1ccc(C=C(C#N)C#N)o1
inactive: [6] 102 % of control | [7] 105 % of control

O=[N+]([O-])c1ccc([O-])c([I+]c2ccccc2)c1
inactive: dose: 12.5 mg/kg/injection, schedule: Q01DX009 (ip), vehicle: Klucel (hydroxypropylcellulose) (HPC) 94 % of control | dose: 25.0 mg/kg/injection, schedule: Q01DX009 (ip), vehicle: Klucel (hydroxypropylcellulose) (HPC) 96 % of control | dose: 50.0 mg/kg/injection, schedule: Q01DX009 (ip), vehicle: Klucel (hydroxypropylcellulose) (HPC) 89 % of control and 94 % of control

C/C(=N\NC(=S)N(C)C)c1cnccn1
inactive: [8] 102 % of control | [9] 100 % of control | [10] 98 % of control and 101 % of control

CC(C)(C)C(=O)Oc1ccc([N+](=O)[O-])cc1
inactive: dose: 100.0 mg/kg/injection, schedule: Q04DX002 (ip), vehicle: saline with Tween-80 106 % of control | dose: 200.0 mg/kg/injection, schedule: Q04DX002 (ip), vehicle: saline with Tween-80 122 % of control | dose: 400.0 mg/kg/injection, schedule: Q04DX002 (ip), vehicle: saline with Tween-80 102 % of control

OCC(O)C(O)C(O)/C=N\Nc1ccccc1 (stereo unspecified)
inactive: dose: 50.0 mg/kg/injection, schedule: Q01DX009 (ip), vehicle: saline 100 % of control | [11] 114 % of control

N#CC(=O)Nc1ccc(F)cc1
inactive: dose: 3.75 mg/kg/injection, schedule: Q01DX005 (ip), vehicle: saline with Tween-80 102 % of control | dose: 7.5 mg/kg/injection, schedule: Q01DX005 (ip), vehicle: saline with Tween-80 94 % of control | dose: 15.0 mg/kg/injection, schedule: Q01DX005 (ip), vehicle: saline with Tween-80 100 % of control and 107 % of control

CN(C)c1cc[n+](C=O)cc1
inactive: dose: 3.75 mg/kg/injection, schedule: Q01DX005 (ip), vehicle: saline 102 % of control | dose: 7.5 mg/kg/injection, schedule: Q01DX005 (ip), vehicle: saline 95 % of control | dose: 15.0 mg/kg/injection, schedule: Q01DX005 (ip), vehicle: saline 100 % of control

CCOC(=O)Nc1ccc(C2SCCN2C(=O)Nc2ccc(Cl)cc2)cc1 (stereo unspecified)
inactive: [6] 100 % of control | [7] 91 % of control | [12] 91 % of control

COc1cc(C2N3CCCN2CC3)cc(OC)c1OC (stereo unspecified)
inactive: [11] 101 % of control | dose: 200.0 mg/kg/injection, schedule: Q01DX009 (ip), vehicle: saline 102 % of control

CC(C)CNC12CN3CN(CN(C3)C1)C2
inactive: dose: 100.0 mg/kg/injection, schedule: Q04DX003 (ip), vehicle: saline 98 % of control | dose: 200.0 mg/kg/injection, schedule: Q04DX003 (ip), vehicle: saline 90 % of control | dose: 400.0 mg/kg/injection, schedule: Q04DX003 (ip), vehicle: saline 92 % of control

CNC(=O)OCc1ncn(-c2ccccc2)c1COC(=O)NC
inactive: dose: 12.5 mg/kg/injection, schedule: Q01DX005 (ip), vehicle: distilled water + Tween-80 99 % of control | dose: 25.0 mg/kg/injection, schedule: Q01DX005 (ip), vehicle: distilled water + Tween-80 95 % of control | dose: 50.0 mg/kg/injection, schedule: Q01DX005 (ip), vehicle: distilled water + Tween-80 101 % of control | dose: 100.0 mg/kg/injection, schedule: Q01DX005 (ip), vehicle: distilled water + Tween-80 101 % of control | dose: 200.0 mg/kg/injection, schedule: Q01DX005 (ip), vehicle: distilled water + Tween-80 99 % of control

O=C(NCCCl)Nc1ccccc1C(=O)O
inactive: dose: 50.0 mg/kg/injection, schedule: Q01DX009 (ip), vehicle: saline with Tween-80 90 % of control | dose: 100.0 mg/kg/injection, schedule: Q01DX009 (ip), vehicle: saline with Tween-80 95 % of control | dose: 200.0 mg/kg/injection, schedule: Q01DX009 (ip), vehicle: saline with Tween-80 99 % of control

CNC(=O)NC(c1ccc(F)cc1)c1cc2c(cc1O)OCO2 (stereo unspecified)
inactive: dose: 60.0 mg/kg/injection, schedule: Q01DX005 (ip), vehicle: Klucel (hydroxypropylcellulose) (HPC) 96 % of control | dose: 120.0 mg/kg/injection, schedule: Q01DX005 (ip), vehicle: Klucel (hydroxypropylcellulose) (HPC) 96 % of control | dose: 240.0 mg/kg/injection, schedule: Q01DX005 (ip), vehicle: Klucel (hydroxypropylcellulose) (HPC) 87 % of control

NC(CO)(CO)CO
inactive: dose: 1600.0 mg/kg/injection, schedule: Q01DX007 (ip), vehicle: saline 121 % of control

CC(C)NC(=S)S
inactive: [1] 104 % of control | [2] 100 % of control | dose: 100.0 mg/kg/injection, schedule: Q01DX009 (ip), vehicle: saline sonified 109 % of control

COc1ccc2c(NCCCCCCCCNc3c4ccc(Cl)cc4nc4cc(OC)ccc34)c3ccc(Cl)cc3nc2c1
inactive: dose: 0.63 mg/kg/injection, schedule: Q01DX009 (ip), vehicle: other 117 % of control | dose: 1.25 mg/kg/injection, schedule: Q01DX009 (ip), vehicle: other 100 % of control | dose: 2.5 mg/kg/injection, schedule: Q01DX009 (ip), vehicle: other 96 % of control | dose: 5.0 mg/kg/injection, schedule: Q01DX009 (ip), vehicle: other 105 % of control | dose: 10.0 mg/kg/injection, schedule: Q01DX009 (ip), vehicle: other 100 % of control | dose: 20.0 mg/kg/injection, schedule: Q01DX009 (ip), vehicle: other 88 % of control

Cn1cccc1C(C=C(c1ccccc1)c1ccccc1)c1cccn1C
inactive: [8] 113 % of control | [9] 114 % of control | [10] 104 % of control and 88 % of control

O=[N+]([O-])c1ccc(/C=C/[n+]2ccc3ccccc3c2)o1
inactive: dose: 1.56 mg/kg/injection, schedule: Q01DX009 (ip), vehicle: saline 107 % of control | dose: 3.12 mg/kg/injection, schedule: Q01DX009 (ip), vehicle: saline 103 % of control | dose: 6.25 mg/kg/injection, schedule: Q01DX009 (ip), vehicle: saline 108 % of control and 91 % of control

COc1ccc(N(C)C(=O)c2ccccc2S(=O)(=O)c2ccccc2C(=O)N(C)c2ccc(OC)cc2)cc1
inactive: [10] 104 % of control | dose: 100.0 mg/kg/injection, schedule: Q01DX005 (ip), vehicle: saline with Tween-80 98 % of control | dose: 200.0 mg/kg/injection, schedule: Q01DX005 (ip), vehicle: saline with Tween-80 100 % of control

CC(=O)N(O)CC(=O)OCc1ccccc1
inactive: dose: 12.5 mg/kg/injection, schedule: Q01DX009 (ip), vehicle: other 96 % of control | dose: 25.0 mg/kg/injection, schedule: Q01DX009 (ip), vehicle: other 104 % of control | dose: 50.0 mg/kg/injection, schedule: Q01DX009 (ip), vehicle: other 102 % of control | dose: 100.0 mg/kg/injection, schedule: Q01DX009 (ip), vehicle: other 111 % of control | dose: 200.0 mg/kg/injection, schedule: Q01DX009 (ip), vehicle: other 100 % of control

c1ccc(-c2cc3c(cc4c5nncn5ncn34)o2)cc1
inactive: [6] 86 % of control | [7] 86 % of control | [12] 91 % of control and 92 % of control

O=c1n(-c2ccccc2)c(=O)n2n1C1CC3c4ccccc4C1C32 (stereo unspecified)
inactive: [5] 101 % of control | [3] 97 % of control | [4] 94 % of control

[CH3][Sn]1([CH3])[O]C(=O)CC(CC(=O)O)C(=O)[O]1 (stereo unspecified)
inactive: dose: 12.5 mg/kg/injection, schedule: Q01DX005 (ip), vehicle: Klucel (hydroxypropylcellulose) (HPC) 119 % of control | [5] 117 % of control | [3] 113 % of control and 117 % of control
